In patent US20230141101A1, “PDE4 INHIBITOR COMPOUND AND MEDICAL USE THEREOF” (Suzhou Longbotai Pharmaceuticals Co., Ltd., priority 2020, published 2023):

Tests used:
Assay type in all cases: biochemical
Conditions in all cases: 20 nM
PDE4D2 = PDE4D2 (Homo sapiens, UniProt Q08499); assay: PDE4 inhibitory activity assay (FAM-cAMP enzymatic reaction), PDE4D2
Procedure, shortened: (§1)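 Inhibition rates from a fluorescence read gave IC50 values. Each enzyme (PDE4A1A, PDE4B1, PDE4D2) sat with compound for 15 min at room temperature; FAM-cAMP then started a 30 min room-temperature reaction, ended with stop solution and left 60 min more.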

PDE4A1A = biological target: T1, PDE4A1A (Homo sapiens, UniProt P27815); assay: PDE4 inhibitory activity assay (FAM-cAMP enzymatic reaction), PDE4A1A
T1 construct: purchased BPS 60040
T1 sequence (P27815 1-647 isoform P27815-4): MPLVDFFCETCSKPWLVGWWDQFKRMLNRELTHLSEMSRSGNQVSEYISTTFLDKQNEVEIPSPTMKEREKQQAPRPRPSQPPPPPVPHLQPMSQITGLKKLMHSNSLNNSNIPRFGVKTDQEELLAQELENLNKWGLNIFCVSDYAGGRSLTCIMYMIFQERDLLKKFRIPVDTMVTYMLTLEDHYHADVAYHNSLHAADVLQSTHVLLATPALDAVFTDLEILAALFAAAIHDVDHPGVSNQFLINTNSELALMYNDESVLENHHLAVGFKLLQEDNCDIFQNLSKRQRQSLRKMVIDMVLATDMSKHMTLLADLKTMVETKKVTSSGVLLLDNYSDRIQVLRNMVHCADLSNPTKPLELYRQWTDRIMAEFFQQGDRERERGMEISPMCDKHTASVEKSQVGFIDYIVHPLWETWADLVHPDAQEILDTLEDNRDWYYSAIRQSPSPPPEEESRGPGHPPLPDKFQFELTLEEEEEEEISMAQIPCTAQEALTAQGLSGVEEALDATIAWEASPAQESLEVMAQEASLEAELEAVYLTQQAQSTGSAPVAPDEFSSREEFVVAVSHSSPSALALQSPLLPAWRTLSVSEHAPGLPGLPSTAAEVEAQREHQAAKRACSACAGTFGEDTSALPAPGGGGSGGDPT
Procedure, shortened: as §1

PDE4B1 = biological target: T2, PDE4B1 (Homo sapiens, UniProt Q07343); assay: PDE4 inhibitory activity assay (FAM-cAMP enzymatic reaction), PDE4B1
T2 construct: purchased BPS 60041
T2 sequence (Q07343 whole entry): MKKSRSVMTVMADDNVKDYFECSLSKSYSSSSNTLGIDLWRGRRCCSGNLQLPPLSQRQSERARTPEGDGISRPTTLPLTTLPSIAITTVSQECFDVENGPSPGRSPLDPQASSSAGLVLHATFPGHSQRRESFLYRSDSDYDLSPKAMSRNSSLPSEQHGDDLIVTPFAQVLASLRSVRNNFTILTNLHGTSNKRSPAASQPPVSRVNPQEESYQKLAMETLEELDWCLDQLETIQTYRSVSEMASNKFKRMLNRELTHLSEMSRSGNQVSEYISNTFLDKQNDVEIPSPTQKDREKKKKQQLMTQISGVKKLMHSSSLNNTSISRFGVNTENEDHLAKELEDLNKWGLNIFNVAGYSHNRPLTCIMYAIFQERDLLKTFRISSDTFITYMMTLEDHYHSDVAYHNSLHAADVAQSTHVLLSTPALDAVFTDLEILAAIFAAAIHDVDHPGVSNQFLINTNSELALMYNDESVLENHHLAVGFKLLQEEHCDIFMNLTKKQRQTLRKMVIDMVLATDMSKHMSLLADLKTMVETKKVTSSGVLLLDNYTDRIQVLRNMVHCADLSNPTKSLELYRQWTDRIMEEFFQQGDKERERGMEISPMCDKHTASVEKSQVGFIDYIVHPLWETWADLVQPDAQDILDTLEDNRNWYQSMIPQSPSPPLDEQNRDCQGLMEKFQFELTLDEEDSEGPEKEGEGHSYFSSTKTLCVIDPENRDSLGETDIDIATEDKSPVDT
Procedure, shortened: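 Each isoform is incubated with test compound for 15 min at room temperature before FAM-cAMP substrate starts a 30-min reaction.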

Sequence of PDE4D2 (Q08499 303-809): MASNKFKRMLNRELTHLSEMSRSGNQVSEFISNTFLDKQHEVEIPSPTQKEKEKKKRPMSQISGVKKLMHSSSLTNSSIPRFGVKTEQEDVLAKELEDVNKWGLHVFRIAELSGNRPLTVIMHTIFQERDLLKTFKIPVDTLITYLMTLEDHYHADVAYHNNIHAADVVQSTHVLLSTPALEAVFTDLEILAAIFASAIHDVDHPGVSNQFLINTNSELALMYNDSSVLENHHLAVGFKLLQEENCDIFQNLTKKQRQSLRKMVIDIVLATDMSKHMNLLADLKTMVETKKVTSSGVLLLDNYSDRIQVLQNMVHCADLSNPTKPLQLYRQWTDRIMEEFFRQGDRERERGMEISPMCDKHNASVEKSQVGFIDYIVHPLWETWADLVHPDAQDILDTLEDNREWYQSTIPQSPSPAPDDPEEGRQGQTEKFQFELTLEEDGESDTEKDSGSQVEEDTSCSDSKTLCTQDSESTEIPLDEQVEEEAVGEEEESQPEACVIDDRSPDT

Row | SMILES | PDE4 D2 inhibitory effect at 20 nM (PDE4D2) | PDE4 A1 inhibitory effect at 20 nM (PDE4A1A) | PDE4 B1 inhibitory effect at 20 nM (PDE4B1)
1 | CCOc1nc([C@@H](CS(C)(=O)=O)n2c(=O)n(CC(F)F)c3c(C)c(-c4ccccc4C)cnc32)ccc1OC [Ex. 59, (S)-1-(2,2-difluoroethyl)-3-(1-(6-ethoxy-5-methoxypyridin-2-yl)-2-(methylsulfonyl)ethyl)-7-methyl-6-(o-methylphenyl)-1H-imidazo[4,5-b]pyridin-2(3H)-one] | + | + | +
2 | CCOc1nc([C@@H](CS(C)(=O)=O)n2c(=O)[nH]c3c(C)c(-c4ccccc4F)cnc32)ccc1OC(F)F [Ex. 60, (S)-3-(1-(5-(difluoromethoxy)-6-ethoxypyridin-2-yl)-2-(methylsulfonyl)ethyl)-6-(2-fluorophenyl)-7-methyl-1H-imidazo[4,5-b]pyridin-2(3H)-one] | + | + | +
3 | CCOc1nc([C@@H](CS(C)(=O)=O)n2c(=O)[nH]c3c(C)c(-c4ccccc4)cnc32)ccc1OC(F)F [Ex. 61, (S)-3-(1-(5-(difluoromethoxy)-6-ethoxypyridin-2-yl)-2-(methylsulfonyl)ethyl)-7-methyl-6-phenyl-1H-imidazo[4,5-b]pyridin-2(3H)-one] | + | + | +
4 | CCOc1nc([C@H](CS(C)(=O)=O)n2c(=O)[nH]c3c(C)c(-c4ccccc4)cnc32)ccc1OC(F)F [Ex. 62, (R)-3-(1-(5-(difluoromethoxy)-6-ethoxypyridin-2-yl)-2-(methylsulfonyl)ethyl)-7-methyl-6-phenyl-1H-imidazo[4,5-b]pyridin-2(3H)-one] | − | − | −
5 | CCOc1nc([C@@H](CS(C)(=O)=O)n2c(=O)[nH]c3c(C)c(-c4ccc(F)cc4)cnc32)ccc1OC(F)F [Ex. 63, (S)-3-(1-(5-(difluoromethoxy)-6-ethoxypyridin-2-yl)-2-(methylsulfonyl)ethyl)-6-(4-fluorophenyl)-7-methyl-1H-imidazo[4,5-b]pyridin-2(3H)-one] | + | + | +
6 | CCOc1nc([C@@H](CS(C)(=O)=O)n2c(=O)[nH]c3c(C)c(-c4ccccc4C)cnc32)ccc1OC(F)F [Ex. 64, (S)-3-(1-(5-(difluoromethoxy)-6-ethoxypyridin-2-yl)-2-(methylsulfonyl)ethyl)-7-methyl-6-(o-methylphenyl)-1H-imidazo[4,5-b]pyridin-2(3H)-one] | + | + | +
7 | CCOc1nc([C@@H](CS(C)(=O)=O)n2c(=O)n(C)c3c(C)c(-c4ccccc4F)cnc32)ccc1OC(F)F [Ex. 65, (S)-3-(1-(5-(difluoromethoxy)-6-ethoxypyridin-2-yl)-2-(methylsulfonyl)ethyl)-6-(2-fluorophenyl)-1,7-dimethyl-1H-imidazo[4,5-b]pyridin-2(3H)-one] | + | + | +
8 | CCOc1nc([C@@H](CS(C)(=O)=O)n2c(=O)n(C)c3c(C)c(-c4ccccc4)cnc32)ccc1OC(F)F [Ex. 66, (S)-3-(1-(5-(difluoromethoxy)-6-ethoxypyridin-2-yl)-2-(methylsulfonyl)ethyl)-1,7-dimethyl-6-phenyl-1H-imidazo[4,5-b]pyridin-2(3H)-one] | + | + | +
9 | CCOc1nc([C@@H](CS(C)(=O)=O)n2c(=O)n(C)c3c(C)c(-c4ccc(F)cc4)cnc32)ccc1OC(F)F [Ex. 67, (S)-3-(1-(5-(difluoromethoxy)-6-ethoxypyridin-2-yl)-2-(methylsulfonyl)ethyl)-6-(4-fluorophenyl)-1,7-dimethyl-1H-imidazo[4,5-b]pyridin-2(3H)-one] | + | + | +
10 | CCOc1nc([C@@H](CS(C)(=O)=O)n2c(=O)n(C)c3c(C)c(-c4ccccc4C)cnc32)ccc1OC(F)F [Ex. 68, (S)-3-(1-(5-(difluoromethoxy)-6-ethoxypyridin-2-yl)-2-(methylsulfonyl)ethyl)-1,7-dimethyl-6-(o-methylphenyl)-1H-imidazo[4,5-b]pyridin-2(3H)-one] | + | + | +
11 | CCOc1nc([C@@H](CS(C)(=O)=O)n2c(=O)n(CC(F)F)c3c(C)c(-c4ccccc4F)cnc32)ccc1OC(C)C [Ex. 69, (S)-1-(2,2-difluoroethyl)-3-(1-(6-ethoxy-5-isopropoxypyridin-2-yl)-2-(methylsulfonyl)ethyl)-6-(2-fluorophenyl)-7-methyl-1H-imidazo[4,5-b]pyridin-2(3H)-one] | + | + | +
12 | CCOc1nc([C@@H](CS(C)(=O)=O)n2c(=O)n(CC(F)F)c3c(C)c(-c4ccccc4)cnc32)ccc1OC(C)C [Ex. 70, (S)-1-(2,2-difluoroethyl)-3-(1-(6-ethoxy-5-isopropoxypyridin-2-yl)-2-(methylsulfonyl)ethyl)-7-methyl-6-phenyl-1H-imidazo[4,5-b]pyridin-2(3H)-one] | + | + | +
13 | CCOc1nc([C@@H](CS(C)(=O)=O)n2c(=O)n(CC(F)F)c3c(C)c(-c4ccc(F)cc4)cnc32)ccc1OC(C)C [Ex. 71, (S)-1-(2,2-difluoroethyl)-3-(1-(6-ethoxy-5-isopropoxypyridin-2-yl)-2-(methylsulfonyl)ethyl)-6-(4-fluorophenyl)-7-methyl-1H-imidazo[4,5-b]pyridin-2(3H)-one] | + | + | +
14 | CCOc1nc([C@@H](CS(C)(=O)=O)n2c(=O)n(CC(F)F)c3c(C)c(-c4ccccc4C)cnc32)ccc1OC(C)C [Ex. 72, (S)-1-(2,2-difluoroethyl)-3-(1-(6-ethoxy-5-isopropoxypyridin-2-yl)-2-(methylsulfonyl)ethyl)-7-methyl-6-(o-methylphenyl)-1H-imidazo[4,5-b]pyridin-2(3H)-one] | + | + | +
15 | CCOc1nc([C@@H](CS(C)(=O)=O)n2c(=O)[nH]c3c(C)c(Br)cnc32)ccc1OC [Ex. 73, (S)-3-(1-(6-ethoxy-5-methoxypyridin-2-yl)-2-(methylsulfonyl)ethyl)-6-bromo-7-methyl-1H-imidazo[4,5-b]pyridin-2(3H)-one] | + | + | +
16 | CCOc1nc([C@@H](CS(C)(=O)=O)n2c(=O)[nH]c3cc(-c4ccccc4F)cnc32)ccc1OC [Ex. 74, (S)-3-(1-(6-ethoxy-5-methoxypyridin-2-yl)-2-(methylsulfonyl)ethyl)-6-(2-fluorophenyl)-1H-imidazo[4,5-b]pyridin-2(3H)-one] | + | + | +
17 | CCOc1nc([C@@H](CS(C)(=O)=O)n2c(=O)[nH]c3cc(-c4ccccc4)cnc32)ccc1OC [Ex. 76, (S)-3-(1-(6-ethoxy-5-methoxypyridin-2-yl)-2-(methylsulfonyl)ethyl)-6-phenyl-1H-imidazo[4,5-b]pyridin-2(3H)-one] | + | + | +
18 | CCOc1nc([C@@H](CS(C)(=O)=O)n2c(=O)n(C)c3cc(-c4ccccc4)cnc32)ccc1OC [Ex. 77, (S)-3-(1-(6-ethoxy-5-methoxypyridin-2-yl)-2-(methylsulfonyl)ethyl)-6-phenyl-1-methyl-1H-imidazo[4,5-b]pyridin-2(3H)-one] | + | + | +
19 | CCOc1nc([C@@H](CS(C)(=O)=O)n2c(=O)[nH]c3cc(-c4ccc(F)cc4)cnc32)ccc1OC [Ex. 78, (S)-3-(1-(6-ethoxy-5-methoxypyridin-2-yl)-2-(methylsulfonyl)ethyl)-6-(4-fluorophenyl)-1H-imidazo[4,5-b]pyridin-2(3H)-one] | + | + | +
20 | CCOc1nc([C@@H](CS(C)(=O)=O)n2c(=O)[nH]c3cc(-c4ccccc4CC)cnc32)ccc1OC [Ex. 81, (S)-3-(1-(6-ethoxy-5-methoxypyridin-2-yl)-2-(methylsulfonyl)ethyl)-6-(2-ethylphenyl)-1H-imidazo[4,5-b]pyridin-2(3H)-one] | + | + | +
